What was measured:
HeLa [1] = experiment: Survival of human HeLa cells at 0.1 uM under deem light after 96 hrs by MTT assay relative to control; type: functional; details: read-out: Survival
HeLa [2] = experiment: Survival of human HeLa cells at 10 uM under deem light after 96 hrs by MTT assay relative to control; type: functional; details: read-out: Survival
HeLa [3] = experiment: Survival of human HeLa cells at 50 uM under deem light after 96 hrs by MTT assay relative to control; type: functional; details: read-out: Survival
HeLa [4] = experiment: Survival of human HeLa cells at 100 uM under deem light after 96 hrs by MTT assay relative to control; type: functional; details: read-out: Survival
NCI-H69 [5] = experiment: Survival of human H69 cells at 0.1 uM under deem light after 96 hrs by MTT assay relative to control; type: functional; details: NCI-H69, 96 h, read-out: Survival
NCI-H69 [6] = experiment: Survival of human H69 cells at 10 uM under deem light after 96 hrs by MTT assay relative to control; type: functional; details: NCI-H69, 96 h, read-out: Survival
NCI-H69 [7] = experiment: Survival of human H69 cells at 50 uM under deem light after 96 hrs by MTT assay relative to control; type: functional; details: NCI-H69, 96 h, read-out: Survival
NCI-H69 [8] = experiment: Survival of human H69 cells at 100 uM under deem light after 96 hrs by MTT assay relative to control; type: functional; details: NCI-H69, 96 h, read-out: Survival
[9] = Survival of human H209 cells at 0.1 uM under deem light after 96 hrs by MTT assay relative to control; type: functional; details: NCI-H209, 96 h, read-out: Survival
[10] = Survival of human H209 cells at 10 uM under deem light after 96 hrs by MTT assay relative to control; type: functional; details: NCI-H209, 96 h, read-out: Survival
[11] = Survival of human H209 cells at 50 uM under deem light after 96 hrs by MTT assay relative to control; type: functional; details: NCI-H209, 96 h, read-out: Survival
[12] = Survival of human H209 cells at 100 uM under deem light after 96 hrs by MTT assay relative to control; type: functional; details: NCI-H209, 96 h, read-out: Survival
[13] = Survival of human 2780.9S cells at 0.1 uM under deem light after 96 hrs by MTT assay relative to control; type: functional; details: read-out: Survival
[14] = Survival of human 2780.9S cells at 10 uM under deem light after 96 hrs by MTT assay relative to control; type: functional; details: read-out: Survival
[15] = Survival of human 2780.9S cells at 50 uM under deem light after 96 hrs by MTT assay relative to control; type: functional; details: read-out: Survival
[16] = Survival of human 2780.9S cells at 100 uM under deem light after 96 hrs by MTT assay relative to control; type: functional; details: read-out: Survival
[17] = Survival of human MDA-MB cells at 0.1 uM under deem light after 96 hrs by MTT assay relative to control; type: functional; details: read-out: Survival
[18] = Survival of human MDA-MB cells at 10 uM under deem light after 96 hrs by MTT assay relative to control; type: functional; details: read-out: Survival
[19] = Survival of human MDA-MB cells at 50 uM under deem light after 96 hrs by MTT assay relative to control; type: functional; details: read-out: Survival
[20] = Survival of human MDA-MB cells at 100 uM under deem light after 96 hrs by MTT assay relative to control; type: functional; details: read-out: Survival
SiHa [21] = experiment: Cytotoxicity against human SIHA cells under deem light after 96 hrs by MTT assay; type: functional, cell-based
Raji [22] = experiment: Cytotoxicity against human Raji cells under deem light after 96 hrs by MTT assay; type: functional, cell-based
[23] = Cytotoxicity against human MDA-MB cells under deem light after 96 hrs by MTT assay; type: functional, cell-based
K562 [24] = experiment: Cytotoxicity against human K562 cells under deem light after 96 hrs by MTT assay; type: functional, cell-based; details: K562, 96 h
HeLa [25] = experiment: Cytotoxicity against human HeLa cells under deem light after 96 hrs by MTT assay; type: functional, cell-based
NCI-H69 [26] = experiment: Cytotoxicity against human H69 cells under deem light after 96 hrs by MTT assay; type: functional, cell-based; details: NCI-H69, 96 h
Daudi = experiment: Cytotoxicity against human Daudi cells under deem light after 96 hrs by MTT assay; type: functional, cell-based
[27] = Cytotoxicity against human 2780.9S cells under deem light after 96 hrs by MTT assay; type: functional, cell-based
[28] = Photohemolysis in human RBC in absence of light; type: ADME, cell-based; details: erythrocyte
[29] = Photohemolysis in human RBC at 375 nM under exposure to light for 10 mins; type: ADME, cell-based, Erythrocyte; details: human red blood cells, read-out: Activity
[30] = Photohemolysis in human RBC assessed as concentration required to 50% hemolysis under light exposure for 5 mins; type: ADME, cell-based, Erythrocyte; details: human red blood cells, read-out: Activity
[31] = Photohemolysis in human RBC assessed as concentration required to 50% hemolysis under light exposure for 10 mins; type: ADME, cell-based, Erythrocyte; details: human red blood cells, read-out: Activity
SiHa [32] = experiment: Survival of human SIHA cells at 1 uM under deem light after 96 hrs by MTT assay relative to control; type: functional; details: read-out: Survival
K562 [33] = experiment: Survival of human K562 cells at 1 uM under deem light after 96 hrs by MTT assay relative to control; type: functional; details: K562, 96 h, read-out: Survival
Raji [34] = experiment: Survival of human Raji cells at 1 uM under deem light after 96 hrs by MTT assay relative to control; type: functional; details: read-out: Survival
HeLa [35] = experiment: Survival of human HeLa cells at 1 uM under deem light after 96 hrs by MTT assay relative to control; type: functional; details: read-out: Survival
NCI-H69 [36] = experiment: Survival of human H69 cells at 1 uM under deem light after 96 hrs by MTT assay relative to control; type: functional; details: NCI-H69, 96 h, read-out: Survival
[37] = Survival of human H209 cells at 1 uM under deem light after 96 hrs by MTT assay relative to control; type: functional; details: NCI-H209, 96 h, read-out: Survival
[38] = Survival of human 2780.9S cells at 1 uM under deem light after 96 hrs by MTT assay relative to control; type: functional; details: read-out: Survival
[39] = Survival of human MDA-MB cells at 1 uM under deem light after 96 hrs by MTT assay relative to control; type: functional; details: read-out: Survival
SiHa [40] = experiment: Survival of human SIHA cells at 10 uM under deem light after 96 hrs by MTT assay relative to control; type: functional; details: read-out: Survival
SiHa [41] = experiment: Survival of human SIHA cells at 50 uM under deem light after 96 hrs by MTT assay relative to control; type: functional; details: read-out: Survival
SiHa [42] = experiment: Survival of human SIHA cells at 100 uM under deem light after 96 hrs by MTT assay relative to control; type: functional; details: read-out: Survival
K562 [43] = experiment: Survival of human K562 cells at 0.1 uM under deem light after 96 hrs by MTT assay relative to control; type: functional; details: K562, 96 h, read-out: Survival
K562 [44] = experiment: Survival of human K562 cells at 10 uM under deem light after 96 hrs by MTT assay relative to control; type: functional; details: K562, 96 h, read-out: Survival
K562 [45] = experiment: Survival of human K562 cells at 50 uM under deem light after 96 hrs by MTT assay relative to control; type: functional; details: K562, 96 h, read-out: Survival
K562 [46] = experiment: Survival of human K562 cells at 100 uM under deem light after 96 hrs by MTT assay relative to control; type: functional; details: K562, 96 h, read-out: Survival
Raji [47] = experiment: Survival of human Raji cells at 0.1 uM under deem light after 96 hrs by MTT assay relative to control; type: functional; details: read-out: Survival
Raji [48] = experiment: Survival of human Raji cells at 10 uM under deem light after 96 hrs by MTT assay relative to control; type: functional; details: read-out: Survival
Raji [49] = experiment: Survival of human Raji cells at 50 uM under deem light after 96 hrs by MTT assay relative to control; type: functional; details: read-out: Survival
Raji [50] = experiment: Survival of human Raji cells at 100 uM under deem light after 96 hrs by MTT assay relative to control; type: functional; details: read-out: Survival

Compound: CC1=C(CCC(=O)O)c2cc3nc(cc4[nH]c(cc5[nH]c(cc1n2)c(C)c5C(C)O)c(C)c4C(C)O)C(C)=C3CCC(=O)O (stereo unspecified) [HAEMAPORPHYRIN]
- viability at 0.1 µM (HeLa [1]): 85.8%
- viability at 10 µM (HeLa [2]): 113%
- viability at 50 µM (HeLa [3]): 109%
- viability at 100 µM (HeLa [4]): 104%
- viability at 0.1 µM (NCI-H69 [5]): 92.2%
- viability at 10 µM (NCI-H69 [6]): 104%
- viability at 50 µM (NCI-H69 [7]): 82.9%
- viability at 100 µM (NCI-H69 [8]): 62.6%
- viability at 0.1 µM [9]: 91.4%
- viability at 10 µM [10]: 99.5%
- viability at 50 µM [11]: 93.3%
- viability at 100 µM [12]: 84.6%
- viability at 0.1 µM [13]: 102%
- viability at 10 µM [14]: 75.5%
- viability at 50 µM [15]: 81.4%
- viability at 100 µM [16]: 43.8%
- viability at 0.1 µM [17]: 136%
- viability at 10 µM [18]: 104%
- viability at 50 µM [19]: 107%
- viability at 100 µM [20]: 82.8%
- IC50 (SiHa [21]): 56 µM
- IC50 (Raji [22]): 57 µM
- IC50 [23]: > 100 µM
- IC50 (K562 [24]): 44 µM
- IC50 (HeLa [25]): 71 µM
- IC50 (NCI-H69 [26]): 70 µM
- IC50 (Daudi): 15 µM
- IC50 [27]: > 100 µM
- Activity [28]: Non-toxic
- hemolysis at 10 min, 0.375 µM [29]: 100%
- HC50 at 5 min [30]: 170 nM
- HC50 at 10 min [31]: 460 nM
- viability at 1 µM (SiHa [32]): 92.2%
- viability at 1 µM (K562 [33]): 82.7%
- viability at 1 µM (Raji [34]): 89.6%
- viability at 1 µM (HeLa [35]): 103%
- viability at 1 µM (NCI-H69 [36]): 105%
- viability at 1 µM [37]: 94%
- viability at 1 µM [38]: 82.5%
- viability at 1 µM [39]: 115%
- viability at 10 µM (SiHa [40]): 81.6%
- viability at 50 µM (SiHa [41]): 52.6%
- viability at 100 µM (SiHa [42]): 44.5%
- viability at 0.1 µM (K562 [43]): 68.7%
- viability at 10 µM (K562 [44]): 82.5%
- viability at 50 µM (K562 [45]): 55.9%
- viability at 100 µM (K562 [46]): 32.1%
- viability at 0.1 µM (Raji [47]): 92.1%
- viability at 10 µM (Raji [48]): 71.4%
- viability at 50 µM (Raji [49]): 27.6%
- viability at 100 µM (Raji [50]): 17%

Reference: ChEMBL document CHEMBL1141575, “Preparation and in vitro biological evaluation of tetrapyrrole ethanolamide derivatives as potential anticancer agents” (Bioorg Med Chem Lett, 2008)
